Results reported in US10875890B2, “Peptide inhibitors targeting the Neisseria gonorrhoeae pivotal anaerobic respiration factor AniA” (priority 2017, dated 2020).
Like-named read-outs stand apart in the source and are kept apart here. Where a SMILES comes first, the peptide text is derived from it. The star is where a group is joined. Biotin = O=C1N[C@H]2[C@H](CS[C@H]2CCCCC(=O)*)N1; Ahx = NCCCCCC(=O)O

What was measured:
[1] = molecular target: T1, sAniA (recombinant AniA nitrite reductase) (Neisseria gonorrhoeae, UniProt Q02219); experiment: Inhibition of nitrite reductase activity of purified sAniA (fluorometric DAN nitrite assay); type: biochemical
T1 construct: wild type protein which lacks the N-terminal palmitoylation signal, sAniA; 6xHis (C); made in house; host or cells: Escherichia coli BL21(DE3)
Protocol: (§1) Measurements of Nitrite Reductase Activity with Purified AniA Variants. Enzymatic activity assessments with sAniA and AniA D137A H280A were performed based upon previous work (Boulanger and Murphy 2002, J Mol Biol 315:1111-27; Kakutani et al. 1981, J Biochem 89:463-72) but using a highly sensitive fluorometric assay for nitrite measurements that relies on the reaction of nitrite with 2,3-diaminonapthalene (DAN) to form the fluorescent product, 1-(H)-naphtothriazole (Misko et al. 1993, Anal Biochem 214:11-6). All reactions were conducted under anoxic or microoxic conditions. Fluorescence was measured at excitation of 360/40 nm and emission of 460/40 nm at a gain of 50 using a Synergy HT Plate Reader (BioTek). The sAniA and AniA D137AH280A activities are expressed as the mean reaction rate (nmoles of nitrite reduced/min/[…]) from at least ten independent experiments over the course of a nitrite utilization assay (Shewell et al. 2013, Biochem Biophys Res Commun 431:215-20).
(§2) Determination of Peptides Inhibitory Concentrations Required to Reduce the Signal by 50% (IC50s). […] Nitrite measurements with DAN were performed as described above after pre-incubation of samples for 1 h at room temperature. Control reactions consisted of sAniA alone and AniA D137A H280A treated in the same manner as the experimental samples. Reactions were performed in at least twelve independent experiments. Percent inhibition was calculated using the formula % I=100*(1−(x−y)/(z−y)) where “x”, “y” and “z” are the concentrations of nitrite in samples containing sAniA incubated with synthetic peptides, AniA D137A H280A and sAniA, respectively. The data were analyzed with a nonlinear log(inhibitor) vs. response—variable slope (four parameters) curve-fitting technique (GraphPad) to obtain […]. All experiments were performed in at least ten independent trials.

sAniA [2] = molecular target: sAniA (Neisseria gonorrhoeae, UniProt Q02219); experiment: biochemical
Protocol: Biolayer Interferometry. […] Streptavidin (SA) biosensors (ForteBio) were loaded with C7-3Bio peptides for 10 min. Unloaded tips were used as a control. The sAniA samples were prepared in Kinetic Buffer in concentrations of 50, 100, 500, and 1000 nM. The baseline was established for 240 s and the association and dissociation steps were performed for 500 s. Experiments were performed in three biological replicates with the curve fitting using 2:1 (Heterogeneous Ligand) model and KD value calculations were completed using Octet Data Analysis (version 9).

[3] = system: AniA nitrite reductase activity of intact N. gonorrhoeae FA1090 ΔaniA/PlacaniA cells; type: cell-based, Neisseria gonorrhoeae; settings: for Inhibition of nitrite reductase activity of intact gonococci: FA1090 ΔaniA/PlacaniA
Protocol: Whole Cell Nitrite Utilization Studies. The FA1090 ΔaniA/Plac::aniA and ΔaniA/Plac::D137AH280A were grown to OD600˜1.0, gently spun down, decanted and re-suspended in GCBL. […] Subsequently, 0.1 mM sodium nitrite was added and the samples were transferred into an anaerobic chamber. After 1 h, nitrite consumption was measured using Griess Reagent (Biotium) as previously described for N. gonorrhoeae nitrite reductase whole cell assay (Shewell et al. 2013, Biochem Biophys Res Commun 431:215-20). Absorbance values were measured at OD545 using a Synergy HT plate reader and nitrite concentration was assessed against a nitrite standard prepared in GCBL. Percent inhibition was calculated using the formula % 1=100*(1−(x−y)/(z−y)) where “x”, “y” and “z” are the concentrations of nitrite in samples containing FA1090 ΔaniA/PlacaniA incubated with synthetic peptides, ΔaniA/PlacaniA D137A H280A and ΔaniA/PlacaniA, respectively. Experiments were performed on at least three separate occasions and mean with SEM are reported.

[4] = molecular target: T2, sAniA (recombinant AniA nitrite reductase) (Neisseria gonorrhoeae, UniProt Q02219); experiment: Inhibition of nitrite reductase activity of purified sAniA (fluorometric DAN nitrite assay); type: biochemical; settings: peptide 0 to 100 μM, DAN nitrite consumption assay
T2 construct: wild type protein which lacks the N-terminal palmitoylation signal, sAniA; 6xHis (C); made in house; host or cells: Escherichia coli BL21(DE3)
T2 sequence (Q02219 whole entry, looked up): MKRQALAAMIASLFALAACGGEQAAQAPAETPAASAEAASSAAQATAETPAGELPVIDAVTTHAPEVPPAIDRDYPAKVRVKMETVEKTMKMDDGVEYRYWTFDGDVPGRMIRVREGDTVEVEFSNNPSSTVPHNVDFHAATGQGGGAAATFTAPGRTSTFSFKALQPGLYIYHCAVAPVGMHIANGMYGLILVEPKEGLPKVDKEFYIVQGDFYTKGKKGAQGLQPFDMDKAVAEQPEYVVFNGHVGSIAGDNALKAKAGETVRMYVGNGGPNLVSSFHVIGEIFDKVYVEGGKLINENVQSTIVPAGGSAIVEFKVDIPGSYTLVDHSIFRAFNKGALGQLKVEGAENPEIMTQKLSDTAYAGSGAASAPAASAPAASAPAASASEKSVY
Protocol: as §1, §2

sAniA [5] = molecular target: T3, sAniA (Neisseria gonorrhoeae, UniProt Q02219); experiment: Phage ELISA of phage-displayed peptides on sAniA-coated wells; type: binding; settings: 10^10 PFU per well, absorbance at 450 nm
T3 construct: wild type protein which lacks the N-terminal palmitoylation signal, sAniA; 6xHis (C); made in house; host or cells: Escherichia coli BL21(DE3)
T3 sequence (Q02219 whole entry, looked up): T2 sequence (Q02219 whole entry, looked up)
Protocol: Phage Enzyme-linked Immunosorbent Assay (Phage ELISA). Individual wells in 96-well transparent plates (Greiner-Bio) were coated with 100 μL of 100 μg/mL of sAniA suspended in 0.1 M NaHCO3pH 8.6 and incubated overnight at 4° C. in an airtight humidified box. After incubation, excess target solution was shaken out and wells were filled with 300 μL of blocking buffer (0.1 M NaHCO3pH 8.6, 5 mg/mL BSA). Following 2 h incubation at 4° C., blocking buffer was removed and wells were washed six times with 200 μL of TBST (50 mM Tris-HCl pH 8.6, 150 mM NaCl, 0.5% Tween). Isolated individual phage amplifications (10^10 PFU) in 100 μl of TBST were incubated at room temperature for 1 h with rocking. All wells were then cleared by shaking and washed six times with 200 μL of TBST. A solution containing Anti-M13 HRP linked-Monoclonal Antibodies (NEB) (1:5,000 dilution in blocking buffer) was distributed at 200 μL per well and incubated with rocking at room temperature for 1 h. Wells were washed six times with TBST and incubated with Turbo TMB-ELISA for 30 min with rocking at room temperature. To stop the reaction, finally 100 μL of 1.78 M H2SO4 was added to each well. […] Data from seven independent experiments are shown with mean and SEM

Question: For CC(C)C[C@H](NC(=O)[C@H](CC(N)=O)NC(=O)[C@H](CC(C)C)NC(=O)[C@H](CCCNC(=N)N)NC(=O)[C@H](CS)NC(=O)[C@H](Cc1ccc(O)cc1)NC(=O)[C@H](CC(N)=O)NC(=O)[C@H](CS)NC(=O)[C@H](C)N)C(=O)N[C@@H](Cc1c[nH]c2ccccc12)C(=O)NCC(=O)NCC(=O)NCC(=O)N[C@@H](CO)C(N)=O [C7-3] (H-ACNYCRLNLWGGGS-NH2), which IC50 [1] is on record?
Answer: Its IC50 is 10100 nM.

Question: What about the Kd (sAniA [2]) of the same compound?
Answer: The Kd was 775 ± 88.5 nM.

Question: And the “Inhibition of nitrite reductase activity of intact gonococci” value ([3]; 0.6 mM peptide)?
Answer: The value was 50%.

Question: With CC(C)C[C@H](NC(=O)[C@H](CC(N)=O)NC(=O)[C@H](CC(C)C)NC(=O)[C@H](CCCNC(=N)N)NC(=O)[C@H](CS)NC(=O)[C@H](Cc1ccc(O)cc1)NC(=O)[C@H](CC(N)=O)NC(=O)[C@H](CS)NC(=O)[C@H](C)NC(=O)CCCCCNC(=O)CCCC[C@@H]1SC[C@@H]2NC(=O)N[C@@H]21)C(=O)N[C@@H](Cc1c[nH]c2ccccc12)C(=O)NCC(=O)NCC(=O)NCC(=O)N[C@@H](CO)C(N)=O [C7-3Bio] ({Biotin-Ahx}-ACNYCRLNLWGGGS-NH2) as the compound, how does the Kd (sAniA [2]) read?
Answer: Its Kd is 775 ± 88.5 nM.

Question: How did the “Inhibition of nitrite reductase activity of intact gonococci” value ([3]; 0.3 mM peptide) turn out when CC(C)C[C@H](NC(=O)[C@H](CC(N)=O)NC(=O)[C@H](CC(C)C)NC(=O)[C@H](CCCNC(=N)N)NC(=O)[C@H](CS)NC(=O)[C@H](Cc1ccc(O)cc1)NC(=O)[C@H](CO)NC(=O)[C@H](CS)NC(=O)[C@H](C)N)C(=O)N[C@@H](Cc1c[nH]c2ccccc12)C(=O)NCC(=O)NCC(=O)NCC(=O)N[C@@H](CO)C(N)=O [C7-3mod2] (H-ACSYCRLNLWGGGS-NH2) was run?
Answer: The value was 50%.

Question: And the “Inhibition of nitrite reductase activity of intact gonococci” value ([3]; 0.6 mM peptide)?
Answer: The value was 90%.

Question: How did the “Inhibition of AniA in intact gonococci (in words)” value ([3]; 0.15-0.6 mM tested, concentration not given) turn out when H-ACNYSRLNLWGGGS-NH2 [C7-3mod1] was run?
Answer: The value was “inhibited AniA moderately”.

Question: Which results are given for “H-KHYYGGDTTTLWGGGS-NH2 [12-5, synthetic version of the dodecameric phage-display hit 12-5]”?
Answer: Influence on AniA enzymatic activity (in words) [4]: did not influence AniA enzymatic activity; Relative binding of phage-displayed peptide to sAniA (in words) (sAniA [5]): best binding; Effect on AniA activity of intact gonococci (in words) ([3]; highest tested concentration, 0.6 mM): no effect

Question: With CC(C)C[C@H](NC(=O)[C@H](CC(N)=O)NC(=O)[C@H](CC(C)C)NC(=O)[C@H](CCCNC(=N)N)NC(=O)[C@H](CS)NC(=O)[C@H](Cc1ccccc1)NC(=O)[C@H](CC(N)=O)NC(=O)[C@H](CS)NC(=O)[C@H](C)N)C(=O)N[C@@H](Cc1c[nH]c2ccccc12)C(=O)NCC(=O)NCC(=O)NCC(=O)N[C@@H](CO)C(N)=O [C7-3P] (H-ACNFCRLNLWGGGS-NH2) as the compound, how does the IC50 [1] read?
Answer: The IC50 was > 105000 nM.
